# Assay results taken from paper PMC9274004, “Deciphering the Molecular Interaction Between the Adhesion G Protein-Coupled Receptor ADGRV1 and its PDZ-Containing Regulator PDZD7” (Frontiers in Molecular Biosciences, 2022).
# Where no end group is shown, it is not given here.
# Target: T1, PDZD7 PDZ1ext (81-192) (Mus musculus, UniProt E9Q9W7)
# T1 construct: PDZ1 (81-167), PDZ1ext (81-192); GST (followed by TEV site) (N, cleaved yes); made in house; host or cells: E. coli BL21 DE3
# T1 sequence (E9Q9W7 81-192): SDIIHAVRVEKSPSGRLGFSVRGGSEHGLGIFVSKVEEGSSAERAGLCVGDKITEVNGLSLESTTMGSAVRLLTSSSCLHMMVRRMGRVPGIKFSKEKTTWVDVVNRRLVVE
# Assay: NMR titration of PDZ1ext with ADGRV1 ligands
# Format: binding, murine
# Conditions: NMR titration (1H-15N HSQC CSP), Tris HCl pH 7.5 (50 mM), 25°C; SD of Kd over at least ten shifting peaks; read-out: Kd
# Description: All experiments were recorded at 25°C on a Bruker 800 MHz spectrometer equipped with a triple resonance ^1H{^13C/^15N} cryoprobe. The ^1H, ^15 N and ^13C backbone resonances assignment of PDZ1ext was carried out using 3D HNCA, HNCACB, HNCO, HNCOCA experiments (Tris HCl buffer adjusted to pH 6). The 2D ^1H-^15N HSQC spectra used to compare PDZ1, PDZ1ext, PDZ2 and PDZ2ext were recorded in Tris HCl pH 7.5 (50 mM). The 2D ^1H-^15N HSQC spectra used to compare PDZ1ext, PDZ2ext and P1P2 were recorded in Phosphate Buffer pH 6.5 (50 mM). Titration experiments of PDZ1 (WT), PDZ1ext (WT) and PDZ1ext (G103R) against ADGRV1pbm peptide were performed in Tris HCl pH 7.5 (50 mM). Averaged Chemical Shifts Perturbations (CSP) were calculated as: Δδavg = ((Δδ(^1H))^2+(Δδ(^15N)*0.159)^2)^½. […]
# We monitored the interaction between PDZD7 constructs and a peptide (ADGRV1pbm) corresponding to the last 13 residues of ADGRV1, encompassing its PBM (sequence VELRRIPIADTHL-COOH; PBM underlined). We measured apparent Kd values of our constructs towards ADGRV1pbm using several biophysical methods (NMR, fluorescence, MicroScale Thermophoresis (MST)) (Table 1; Supplementary Figure S3–S5). […]
sequence,measurement,value
VELRRIPIADTHL [ADGRV1pbm],Kd,47 ± 6 µM
